“Also recorded” adds a separate entry of the source.
What was measured:
Type in all cases: cell-based, human
[1] = tested on: adipose tissue derived mesenchymal stem cells; assay: Expansion and phenotype of adipose tissue derived MSCs with nicotinamide
Procedure: (§1) Cell number was measured using Cedex Automated Cell Counter (Innovatis). The cells were diluted 1:2 in Trypan Blue (Sigma) and cell number was measured automatically under microscope.

mesenchymal stem cells [2] = assay: CFU-F assay; settings: 5 mM nicotinamide
Procedure: Cultured MSCs were seeded in 6-well plates at density of 50-100 cells/cm^2 and maintained with DMEM and 10% FBS. After 14 days the cells were fixed using 10% cold Formalin (Sigma) and stained with Harris Hematoxylin (Sigma). Clones (cluster of more than 50 cells with evident epicenter) are stained blue-purple and counted using microscope.

mesenchymal stem cells [3] = assay: Surface expression of VCAM1/CD106 and CD54 by FACS; settings: versus MSCs grown without nicotinamide
Procedure: Mesenchymal stem cells were isolated using plastic adherence method, as described above and cultured for several passages with fetal bovine serum, ±NAM. The cells were selected in the presence of NAM. At about 80% confluence, adherent cells were collected following trypsin treatment, counted, characterized and re-seeded at a concentration of 1×10^3 cells/cm^2. Following Trypsin treatment the cells were analyzed for CD 106 expression in FACS using anti-human CD 106 PE antibodies. Following Trypsin treatment the cells were analyzed for CD54 expression in FACS using anti-human CD54 antibodies.

mesenchymal stem cells [4] = assay: In vitro wound healing assay; settings: passage 3, 4 days post wound formation
Procedure: Wound was performed in MSCs cultures at ˜70% confluence using 200 μl or 1000 μl tip. Four days later the cells were fixated using 10% cold Formalin (Sigma) and stained with Harris Hematoxylin (Sigma). The in-vitro wound healing process was evaluated using microscope.

[5] = tested on: bone marrow mesenchymal stem cells; assay: Growth factor secretion into conditioned medium (ELISA); settings: passage 4, 5 mM NAM, 50 ng/ml FGF4
Procedure: In some experiments, the adherent cells were cultured with or without nicotinamide and indicated factors, and 24 hours before passage 4, and the medium replaced with medium without fetal bovine serum or FGF4. Medium from MSC cultured as indicated, and depleted of fetal bovine serum and FGF4 24 hours before passage 4 was collected and assayed by ELISA for growth factors and immune-related factors secreted into the medium ([…] HGF, transforming growth factor beta TGF-β, keratinocyte growth factor KGF and interleukin 6 IL-6). ELISA was carried out using solid phase sandwich ELISA kits specific for human KGF (R&D systems, cat#DKG00), IL-6 (R&D systems, cat#D6050), TGF-β1 (R&D systems, cat#DB100B), HGF (R&D systems, cat#DHG00).

[6] = tested on: adipose-derived mesenchymal stem cells; assay: Adipose-derived MSC proliferation and cell size with nicotinamide with or without FGF4; settings: Cedex cell counter; 5 mM NAM, 50 ng/ml FGF4
Procedure: as §1

With `NC(=O)c1cccnc1` [nicotinamide, Nicotinamide] as the molecule, how does the “differentiation state (surface marker composition) after expansion in nicotinamide” value ([1]; at least six passages) read?
The value was “without induction of differentiation”.

And the “adipose derived mesenchymal stem cell expansion in culture” value ([1]; nicotinamide added from passage 3)?
Its value is “substantially improved”.

And the “cumulative CFU-F count” value (mesenchymal stem cells [2])?
The value was “increases the cumulative CFU-F count”.

What about the CD54 expression (mesenchymal stem cells [3]) of the same molecule?
Its CD54 expression is “express less CD54”.

And the VCAM1/CD106 expression (mesenchymal stem cells [3])?
Its VCAM1/CD106 expression is “express more VCAM1/CD106”.

What about the “wound closure by MSCs” value (mesenchymal stem cells [4]) of the same molecule?
Its value is “higher ability to perform wound closure”.

And the “hepatocyte growth factor (HGF) in conditioned medium” value [5]?
Its value is “elevated levels”.

What about the “interleukin 6 (IL-6) secreted into conditioned medium” value [5] of the same molecule?
Its value is “reduced levels; also recorded: reduction”.

What about the “keratinocyte growth factor (KGF) in conditioned medium” value [5] of the same molecule?
Its value is “elevated levels”.

What about the “transforming growth factor beta (TGF-β) in conditioned medium” value [5] of the same molecule?
Its value is “elevated levels”.

What about the “prevalence of smaller size cells in adipose derived MSC cultures” value [6] of the same molecule?
Its value is “increased prevalence of smaller size cells”.

Source: patent US10047345B2, “Culturing of mesenchymal stem cells with FGF4 and nicotinamide” (Gamida-Cell Ltd., priority 2012, dated 2018)
